The values that follow come from patent US20150079158A1, “METHOD TO STABILIZE LIPOSOME EMULSIONS FOR BIOCIDAL DELIVERY” (General Electric Company, priority 2012, published 2015).

The nature of this series: HPLC analysis of active degradation after accelerated storage. The series is classed as physicochemical. The protocol: The degradation of the biocide-containing liposome emulsion can be qualitatively observed by the formation of an insoluble precipitate. Quantitatively, high pressure liquid chromatography (HPLC) analysis was used to determine actives concentrations for samples stored under accelerated storage conditions. The samples that passed 90 days at 35° C. or 30 days at 50° C. were taken to ambient temperature and analyzed. The stability of these liposome emulsions was determined as follows.
HPLC analysis was executed for active degradation of 5-chloro-2-methyl-4-isothiazolin-3-one and 2-methyl-4-isothiazolin-3-one in the samples after 90 days at 35° C. or 30 days at 50° C.

For the compound `Cn1sccc1=O` [2-methyl-4-isothiazolin-3-one], the “active degradation (HPLC)” value is given as “less than 10%”.
